# What was measured:
# Experiment in all cases: KINOMEscan competition binding
# Conditions in all cases: compound 10.0 µM
# [1] = biological target: HIPK2 (human) (UniProt Q9H2X6)
# [2] = biological target: GRK7 (human) (UniProt Q8WTQ7)
# [3] = tested on: PIK3CA (human), P42336 [E545K]
# [4] = biological target: MAP3K15 (human) (UniProt Q6ZN16)
# [5] = tested on: KIT (human), P10721 [V559D/T670I]
# [6] = biological target: SBK1 (human) (UniProt Q52WX2)
# [7] = tested on: EGFR (human), P00533 [746-750 del]
# [8] = tested on: PIK3CA (human), P42336 [H1047Y]
# [9] = biological target: SIK3 (human) (UniProt Q9Y2K2)
# [10] = biological target: EPHB6 (human) (UniProt O15197)
# [11] = tested on: EGFR (human), P00533 [L861Q]
# [12] = biological target: BRAF (human) (UniProt P15056)
# [13] = biological target: DDR1 (human) (UniProt Q08345)
# [14] = biological target: CDK2 (human) (UniProt P24941)
# [15] = biological target: TBK1 (human) (UniProt Q9UHD2)
# [16] = biological target: MAP3K1 (human) (UniProt Q13233)
# [17] = biological target: ERN1 (human) (UniProt O75460)
# [18] = biological target: PI4KB (human) (UniProt Q9UBF8)
# [19] = biological target: PRPF4B (human) (UniProt Q13523)
# [20] = biological target: MYLK3 (human) (UniProt Q32MK0)
# [21] = biological target: CDKL3 (human) (UniProt Q8IVW4)
# [22] = tested on: PIK3CA (human), P42336 [Q546K]
# [23] = biological target: HUNK (human) (UniProt P57058)
# [24] = biological target: PIK3CA (human) (UniProt P42336)
# [25] = biological target: BTK (human) (UniProt Q06187)
# [26] = biological target: MET (human) (UniProt P08581)
# [27] = tested on: PIK3CA (human), P42336 [E545A]
# [28] = tested on: PIK3CA (human), P42336 [C420R]
# [29] = biological target: PIP5K1C (human) (UniProt O60331)
# [30] = biological target: IRAK4 (human) (UniProt Q9NWZ3)
# [31] = biological target: PIP4K2C (human) (UniProt Q8TBX8)
# [32] = biological target: CDK13 (human) (UniProt Q14004)
# [33] = biological target: SNRK (human) (UniProt Q9NRH2)
# [34] = biological target: SGK3 (human) (UniProt Q96BR1)
# [35] = tested on: CPK1 (P.falciparum)
# [36] = biological target: CASK (human) (UniProt O14936)
# [37] = biological target: PRKCI (human) (UniProt P41743)
# [38] = biological target: VRK2 (human) (UniProt Q86Y07)
# [39] = biological target: DSTYK (human) (UniProt Q6XUX3)
# Chain of CDKL3 (human) (Q8IVW4 whole entry, looked up): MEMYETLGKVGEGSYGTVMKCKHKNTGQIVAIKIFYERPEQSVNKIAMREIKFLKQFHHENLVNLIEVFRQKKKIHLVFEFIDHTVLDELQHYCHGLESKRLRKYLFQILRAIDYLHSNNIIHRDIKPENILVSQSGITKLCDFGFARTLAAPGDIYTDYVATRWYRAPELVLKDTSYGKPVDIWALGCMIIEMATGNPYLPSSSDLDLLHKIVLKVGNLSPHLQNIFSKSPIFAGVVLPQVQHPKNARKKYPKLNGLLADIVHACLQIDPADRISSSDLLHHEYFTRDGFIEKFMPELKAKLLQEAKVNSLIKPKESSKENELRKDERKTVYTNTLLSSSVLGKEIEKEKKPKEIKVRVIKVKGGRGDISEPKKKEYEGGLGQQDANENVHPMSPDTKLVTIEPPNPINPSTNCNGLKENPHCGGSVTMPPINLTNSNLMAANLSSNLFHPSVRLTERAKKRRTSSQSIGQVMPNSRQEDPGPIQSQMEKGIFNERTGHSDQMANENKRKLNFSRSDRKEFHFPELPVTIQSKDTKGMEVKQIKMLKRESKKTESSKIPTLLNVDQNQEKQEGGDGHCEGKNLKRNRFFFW
# Chain of ERN1 (human) (O75460 whole entry, looked up): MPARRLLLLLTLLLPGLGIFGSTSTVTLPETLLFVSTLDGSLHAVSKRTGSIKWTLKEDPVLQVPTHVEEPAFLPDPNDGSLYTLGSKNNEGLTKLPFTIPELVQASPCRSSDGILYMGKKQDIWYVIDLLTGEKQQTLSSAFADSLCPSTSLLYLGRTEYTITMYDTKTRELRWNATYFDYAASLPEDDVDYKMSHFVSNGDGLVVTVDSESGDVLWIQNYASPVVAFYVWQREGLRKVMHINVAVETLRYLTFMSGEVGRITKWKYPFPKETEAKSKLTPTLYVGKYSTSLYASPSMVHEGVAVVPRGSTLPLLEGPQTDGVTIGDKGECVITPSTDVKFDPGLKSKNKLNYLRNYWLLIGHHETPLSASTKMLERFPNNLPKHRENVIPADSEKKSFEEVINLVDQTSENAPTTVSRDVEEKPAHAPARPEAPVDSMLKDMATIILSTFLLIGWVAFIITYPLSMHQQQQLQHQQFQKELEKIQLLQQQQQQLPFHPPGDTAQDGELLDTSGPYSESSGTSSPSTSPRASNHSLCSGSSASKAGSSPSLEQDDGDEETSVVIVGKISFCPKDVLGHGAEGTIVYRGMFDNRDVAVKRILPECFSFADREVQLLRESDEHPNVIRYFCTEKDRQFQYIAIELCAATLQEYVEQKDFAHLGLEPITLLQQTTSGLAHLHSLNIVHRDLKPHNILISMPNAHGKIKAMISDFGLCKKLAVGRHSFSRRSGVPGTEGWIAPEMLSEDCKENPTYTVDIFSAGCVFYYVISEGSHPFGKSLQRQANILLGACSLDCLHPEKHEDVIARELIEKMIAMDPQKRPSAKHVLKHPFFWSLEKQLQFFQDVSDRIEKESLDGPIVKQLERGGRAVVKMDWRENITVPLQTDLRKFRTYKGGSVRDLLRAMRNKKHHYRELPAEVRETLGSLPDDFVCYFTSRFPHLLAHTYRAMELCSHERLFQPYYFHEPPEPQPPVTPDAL
# Chain of PIK3CA (human), P42336 [E545K] (P42336 whole entry E545K, looked up): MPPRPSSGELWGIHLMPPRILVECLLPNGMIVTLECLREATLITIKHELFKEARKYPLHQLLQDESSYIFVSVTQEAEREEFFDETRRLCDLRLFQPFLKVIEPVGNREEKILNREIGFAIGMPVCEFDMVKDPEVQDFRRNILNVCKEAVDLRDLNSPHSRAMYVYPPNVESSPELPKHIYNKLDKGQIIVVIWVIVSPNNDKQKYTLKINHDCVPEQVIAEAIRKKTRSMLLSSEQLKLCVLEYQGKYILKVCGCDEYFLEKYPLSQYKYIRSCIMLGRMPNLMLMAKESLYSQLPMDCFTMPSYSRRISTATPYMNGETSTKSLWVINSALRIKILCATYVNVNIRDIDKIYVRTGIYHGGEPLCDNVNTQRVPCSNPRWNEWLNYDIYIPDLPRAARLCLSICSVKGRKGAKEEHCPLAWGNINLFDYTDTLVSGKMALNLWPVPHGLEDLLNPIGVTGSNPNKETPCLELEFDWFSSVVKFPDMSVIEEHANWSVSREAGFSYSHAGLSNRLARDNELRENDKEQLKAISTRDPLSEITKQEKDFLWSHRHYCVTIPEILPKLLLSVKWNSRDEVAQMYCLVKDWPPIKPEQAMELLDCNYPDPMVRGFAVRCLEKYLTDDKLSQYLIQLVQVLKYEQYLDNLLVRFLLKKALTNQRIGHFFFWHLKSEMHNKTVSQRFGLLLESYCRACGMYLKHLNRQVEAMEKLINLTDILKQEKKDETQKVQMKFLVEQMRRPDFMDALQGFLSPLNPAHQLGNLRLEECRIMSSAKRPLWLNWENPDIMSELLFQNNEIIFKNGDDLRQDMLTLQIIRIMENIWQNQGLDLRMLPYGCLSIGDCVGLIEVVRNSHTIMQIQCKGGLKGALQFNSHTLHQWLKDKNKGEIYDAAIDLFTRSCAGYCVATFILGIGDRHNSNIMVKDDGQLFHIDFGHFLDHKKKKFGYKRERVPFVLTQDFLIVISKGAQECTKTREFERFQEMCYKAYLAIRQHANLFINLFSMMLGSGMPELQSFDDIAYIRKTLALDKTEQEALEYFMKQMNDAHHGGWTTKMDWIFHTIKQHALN
# Chain of EPHB6 (human) (O15197 whole entry, looked up): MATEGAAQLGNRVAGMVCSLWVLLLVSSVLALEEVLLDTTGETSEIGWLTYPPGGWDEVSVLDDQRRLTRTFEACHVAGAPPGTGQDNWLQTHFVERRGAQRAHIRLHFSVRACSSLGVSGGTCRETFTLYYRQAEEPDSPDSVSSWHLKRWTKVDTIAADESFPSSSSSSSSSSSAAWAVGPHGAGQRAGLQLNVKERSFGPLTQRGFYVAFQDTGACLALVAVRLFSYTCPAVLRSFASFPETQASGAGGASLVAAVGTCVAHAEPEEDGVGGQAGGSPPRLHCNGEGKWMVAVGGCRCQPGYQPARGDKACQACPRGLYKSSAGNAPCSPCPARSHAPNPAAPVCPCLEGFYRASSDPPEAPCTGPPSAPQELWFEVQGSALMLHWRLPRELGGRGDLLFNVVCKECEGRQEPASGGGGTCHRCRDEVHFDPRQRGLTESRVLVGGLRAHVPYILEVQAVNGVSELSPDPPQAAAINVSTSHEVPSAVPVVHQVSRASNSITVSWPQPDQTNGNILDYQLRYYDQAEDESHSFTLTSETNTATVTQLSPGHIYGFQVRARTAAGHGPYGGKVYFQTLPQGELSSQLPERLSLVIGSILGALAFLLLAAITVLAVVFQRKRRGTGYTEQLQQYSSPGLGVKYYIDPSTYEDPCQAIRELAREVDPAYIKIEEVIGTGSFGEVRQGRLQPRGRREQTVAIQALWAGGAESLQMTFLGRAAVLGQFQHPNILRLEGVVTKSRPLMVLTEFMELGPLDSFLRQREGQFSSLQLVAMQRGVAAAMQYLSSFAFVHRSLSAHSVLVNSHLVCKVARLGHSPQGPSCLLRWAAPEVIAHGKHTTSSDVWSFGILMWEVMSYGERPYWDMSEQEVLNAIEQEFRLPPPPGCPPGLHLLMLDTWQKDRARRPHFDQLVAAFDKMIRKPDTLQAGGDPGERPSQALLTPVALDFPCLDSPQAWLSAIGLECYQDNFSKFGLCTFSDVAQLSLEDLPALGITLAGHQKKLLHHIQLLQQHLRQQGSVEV
# Chain of PI4KB (human) (Q9UBF8 whole entry, looked up): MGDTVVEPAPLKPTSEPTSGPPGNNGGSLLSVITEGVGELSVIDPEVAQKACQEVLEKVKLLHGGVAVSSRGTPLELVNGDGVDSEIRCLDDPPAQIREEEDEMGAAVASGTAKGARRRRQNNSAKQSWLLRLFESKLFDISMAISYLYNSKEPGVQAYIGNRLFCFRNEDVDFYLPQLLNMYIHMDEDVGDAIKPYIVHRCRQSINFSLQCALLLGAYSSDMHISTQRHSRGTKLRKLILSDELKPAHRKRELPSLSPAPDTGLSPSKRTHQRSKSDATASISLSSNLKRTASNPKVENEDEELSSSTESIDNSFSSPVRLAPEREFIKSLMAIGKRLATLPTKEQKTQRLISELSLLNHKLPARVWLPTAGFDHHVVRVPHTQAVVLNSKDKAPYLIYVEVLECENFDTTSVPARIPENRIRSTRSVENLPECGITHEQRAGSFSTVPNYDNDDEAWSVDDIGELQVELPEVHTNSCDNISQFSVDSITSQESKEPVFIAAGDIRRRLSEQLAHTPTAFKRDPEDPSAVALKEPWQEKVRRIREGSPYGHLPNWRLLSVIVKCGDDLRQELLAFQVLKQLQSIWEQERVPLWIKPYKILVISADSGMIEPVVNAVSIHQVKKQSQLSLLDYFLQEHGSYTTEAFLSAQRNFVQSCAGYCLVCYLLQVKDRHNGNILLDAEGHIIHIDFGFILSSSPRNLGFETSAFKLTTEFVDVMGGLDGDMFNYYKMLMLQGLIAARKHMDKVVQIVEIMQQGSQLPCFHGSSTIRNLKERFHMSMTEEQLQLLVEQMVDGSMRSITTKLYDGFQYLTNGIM
# Chain of SBK1 (human) (Q52WX2 whole entry, looked up): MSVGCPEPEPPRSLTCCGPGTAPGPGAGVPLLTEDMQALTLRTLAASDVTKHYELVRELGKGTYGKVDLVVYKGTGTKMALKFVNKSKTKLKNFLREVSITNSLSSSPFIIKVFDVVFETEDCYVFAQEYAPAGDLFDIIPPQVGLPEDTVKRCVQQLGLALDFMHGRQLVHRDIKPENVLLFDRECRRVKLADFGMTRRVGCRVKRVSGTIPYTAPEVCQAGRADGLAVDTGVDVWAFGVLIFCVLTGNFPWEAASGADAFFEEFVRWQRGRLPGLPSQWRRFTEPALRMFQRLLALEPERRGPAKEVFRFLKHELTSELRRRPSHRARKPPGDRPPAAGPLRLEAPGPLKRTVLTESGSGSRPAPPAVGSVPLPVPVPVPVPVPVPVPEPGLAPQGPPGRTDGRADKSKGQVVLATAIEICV
SMILES,"kinase still bound, per cent of control [1] [%]","kinase still bound, per cent of control [2] [%]","kinase still bound, per cent of control [3] [%]","kinase still bound, per cent of control [4] [%]","kinase still bound, per cent of control [5] [%]","kinase still bound, per cent of control [6] [%]","kinase still bound, per cent of control [7] [%]","kinase still bound, per cent of control [9] [%]","kinase still bound, per cent of control [10] [%]","kinase still bound, per cent of control [11] [%]","kinase still bound, per cent of control [12] [%]","kinase still bound, per cent of control [13] [%]","kinase still bound, per cent of control [14] [%]","kinase still bound, per cent of control [15] [%]","kinase still bound, per cent of control [16] [%]","kinase still bound, per cent of control [17] [%]","kinase still bound, per cent of control [20] [%]","kinase still bound, per cent of control [24] [%]","kinase still bound, per cent of control [25] [%]","kinase still bound, per cent of control [26] [%]",other results
Cn1c(=O)n(-c2ccc(C(C)(C)C#N)cc2)c2c3cc(-c4cnc5ccccc5c4)ccc3ncc21,100,100,3,100,100,100,100,100,100,100,100,100,100,100,100,100,100,2.8,–,–,"kinase still bound, per cent of control [8]: 6.2%; kinase still bound, per cent of control [18]: 100%; kinase still bound, per cent of control [19]: 100%; kinase still bound, per cent of control [21]: 100%; kinase still bound, per cent of control [22]: 3.8%; kinase still bound, per cent of control [23]: 100%"
COc1cc(C(=O)NC2CCN(C)CC2)ccc1Nc1ncc2c(n1)N(C1CCCC1)CCC(=O)N2C(C)C,100,100,100,100,100,100,100,100,100,100,–,100,100,100,100,100,100,100,100,100,"kinase still bound, per cent of control [27]: 100%; kinase still bound, per cent of control [8]: 100%; kinase still bound, per cent of control [28]: 100%; kinase still bound, per cent of control [18]: 100%; kinase still bound, per cent of control [19]: 100%; kinase still bound, per cent of control [21]: 100%; kinase still bound, per cent of control [22]: 100%; kinase still bound, per cent of control [23]: 100%"
Nc1ccc(-c2ccc3ncc4ccc(=O)n(-c5cccc(C(F)(F)F)c5)c4c3c2)cn1,53,60,–,100,68,100,92,79,82,93,73,100,67,100,100,100,100,–,100,100,"kinase still bound, per cent of control [29]: 51%; kinase still bound, per cent of control [30]: 85%; kinase still bound, per cent of control [31]: 21%; kinase still bound, per cent of control [32]: 100%; kinase still bound, per cent of control [33]: 100%; kinase still bound, per cent of control [34]: 100%; kinase still bound, per cent of control [35]: 52%; kinase still bound, per cent of control [36]: 67%; kinase still bound, per cent of control [37]: 100%; kinase still bound, per cent of control [38]: 100%; kinase still bound, per cent of control [39]: 88%; kinase still bound, per cent of control [19]: 100%; kinase still bound, per cent of control [21]: 100%; kinase still bound, per cent of control [23]: 100%"
COc1cc(C(=O)NC2CCN(C)CC2)ccc1Nc1ncc2c(n1)N(C1CCCC1)C(C)CC(=O)N2C (centres undefined),–,–,100,–,100,–,100,–,–,100,–,100,100,–,–,–,100,100,100,100,–
CC[C@@H]1C(=O)N(C)c2cnc(Nc3ccc(C(=O)NC4CCN(C)CC4)cc3OC)nc2N1C1CCCC1,–,–,100,–,100,–,–,–,–,–,100,100,100,–,–,–,–,100,–,–,–

# More lines, main results first:
"kinase still bound, per cent of control [1] [%]","kinase still bound, per cent of control [2] [%]","kinase still bound, per cent of control [3] [%]","kinase still bound, per cent of control [4] [%]","kinase still bound, per cent of control [5] [%]","kinase still bound, per cent of control [6] [%]","kinase still bound, per cent of control [7] [%]","kinase still bound, per cent of control [9] [%]","kinase still bound, per cent of control [10] [%]","kinase still bound, per cent of control [11] [%]","kinase still bound, per cent of control [12] [%]","kinase still bound, per cent of control [13] [%]","kinase still bound, per cent of control [14] [%]","kinase still bound, per cent of control [15] [%]","kinase still bound, per cent of control [16] [%]","kinase still bound, per cent of control [17] [%]","kinase still bound, per cent of control [20] [%]","kinase still bound, per cent of control [24] [%]","kinase still bound, per cent of control [25] [%]","kinase still bound, per cent of control [26] [%]",SMILES,other results
–,–,100,–,100,–,0.2,–,–,0.05,100,100,100,–,–,–,100,100,0.1,20,C=CC(=O)Nc1cccc(Oc2nc(Nc3ccc(N4CCN(C)CC4)cc3OC)ncc2Cl)c1,–
15,100,100,100,100,100,100,100,100,100,100,100,100,100,100,100,100,100,100,100,OCCCNc1cc(-c2ccnc(Nc3cccc(Cl)c3)n2)ccn1,"kinase still bound, per cent of control [27]: 100%; kinase still bound, per cent of control [8]: 100%; kinase still bound, per cent of control [28]: 100%; kinase still bound, per cent of control [18]: 100%; kinase still bound, per cent of control [19]: 100%; kinase still bound, per cent of control [21]: 5.4%; kinase still bound, per cent of control [22]: 100%; kinase still bound, per cent of control [23]: 100%"
–,–,100,–,100,–,100,–,–,100,2,0.1,100,–,–,–,100,100,100,100,Cc1ccc(C(=O)Nc2cccc(C(F)(F)F)c2)cc1Nc1cncc(C(N)=O)c1,–

# From the kinase profiling compilation of Christmann-Franck et al. (2016)
